Assay results as given in patent EP1200059B1, “SKIN CARE COMPOSITION” (UNILEVER PLC, priority 1999, dated 2001).
“Also recorded” adds a separate entry of the source. Like-named read-outs stand apart in the source and are kept apart here. Values belong to the compound of their own block, whether it stands above or below them.

Experiments:
[1] = system: acyl CoA retinol transferase (ARAT); experiment: in vitro Microsomal Assay of retinol esterification, ARAT catalysed (retinyl palmitate formation)
[2] = target: T1, lecithin retinol acyl transferase (LRAT) (Bos taurus, UniProt Q9BGL2); experiment: in vitro Microsomal Assay of retinol esterification, LRAT catalysed (retinyl laurate formation); settings: for % INHIBITION, LRAT: Table 6A, 100µM; for % INHIB. LRAT: Table 5
T1 sequence (Q9BGL2 1-230): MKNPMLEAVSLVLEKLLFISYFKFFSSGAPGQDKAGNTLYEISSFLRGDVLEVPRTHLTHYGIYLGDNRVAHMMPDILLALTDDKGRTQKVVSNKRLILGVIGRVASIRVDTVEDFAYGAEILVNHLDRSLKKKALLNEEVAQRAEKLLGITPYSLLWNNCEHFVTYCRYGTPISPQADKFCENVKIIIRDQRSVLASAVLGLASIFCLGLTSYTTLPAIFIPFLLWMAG

[3] = system: LRAT and ARAT catalysed retinol esterification; experiment: in vitro Microsomal Assay, overall verdict on retinol esterification (LRAT and ARAT); settings: verdict on the table results
[4] = system: decorin synthesis in human dermal fibroblasts; experiment: Dot blot assay for decorin protein in dermal fibroblast conditioned medium; format: cell-based; settings: 24 hours, relative to vehicle control = 100
Procedure: (§1) Primary human foreskin fibroblasts at passage 2 (P2) were seeded into 12-well plates at 10000 cells/cm^2 and maintained for 24 hours in an atmosphere of 5% carbon dioxide and 4% oxygen in Dulbeccos Modified Eagles Medium (DMEM) supplemented with 10% foetal calf serum. After this time the cells were washed with serum free DMEM and then incubated in fresh serum free DMEM for a further 60 hours. The fibroblast monolayers were then washed again with serum free DMEM. Test reagents and vehicle controls were added to the cells in triplicate in a final volume of 0.4ml/well fresh serum free DMEM and incubated for a further 24 hours. This fibroblast conditioned medium was either analysed immediately or snap frozen in liquid nitrogen and stored at -70°C for future analysis. The cells were then counted and data from the dot-blot analysis subsequently standardised to cell number. […]
(§2) At the end of this time the exposed screen was scanned by a phosphorimager (Molecular Dynamics Phosphorimager SF) using ImageQuant™ software. Dot intensity was assessed by computer-assisted image analysis using the quantification tools in ImageQuant™, standardised to cell number and the effects of various test reagents on decorin and procollagen-I synthesis were determined relative to a vehicle treated control value of 100 arbitrary units. […]

[5] = system: procollagen-I synthesis in human dermal fibroblasts; experiment: Dot blot assay for procollagen-I protein in dermal fibroblast conditioned medium; format: cell-based; settings: 24 hours, control = 100%
Procedure: as §1, §2

Compound: CCCCC/C=C\C/C=C\CCCCCCCC(=O)N(CCO)CCO [Linoleamide-DEA (LODEA), Linoleamide-DEA]
retinol esterification inhibition (result in words) [3]: potent retinol esterification inhibitors | inhibition at 10 µM ([2]; read-out: % INHIB. LRAT): 11% | inhibition at 100 µM ([2]; read-out: % INHIB. LRAT): 51%

Compound: CC1=CCC(CCC(C)CO)C1(C)C (centres unmarked) [Brahmanol]
% INHIBITION, ARAT ([1]; Table 6A, 100µM): 70% | inhibition at 100 µM ([2]; read-out: % INHIBITION, LRAT): 75%

Compound: CC(C)=CCCC(C)=CCCC(C)=CCO [Farnesol]
retinol esterification inhibition (result in words) [3]: inhibit retinol esterification | % INHIB. ARAT ([1]; Table 8, 10 µM): 20% | % INHIB. ARAT ([1]; Table 8, 100 µM): 43% | inhibition at 10 µM ([2]; read-out: % INHIB. LRAT): 10% | inhibition at 100 µM ([2]; read-out: % INHIB. LRAT): 43%

Compound: C/C=C/C(=O)C1=C(C)C=CCC1(C)C [Damascenone]
inhibition at 10 µM ([2]; read-out: % INHIBITION, LRAT): 29% | inhibition at 100 µM ([2]; read-out: % INHIBITION, LRAT): 79%

Compound: CCCCCCCCCCCCC/C=C/[C@@H](O)[C@H](CO)NC(C)=O [Acetyl Sphingosine]
retinol esterification inhibition (result in words) [3]: potent retinol esterification inhibitors | % INHIB. ARAT ([1]; Table 5, 10 μM): 19% | % INHIB. ARAT ([1]; Table 5, 100 μM): 62% | % INHIB. LRAT ([2]; 10 μM): 10% | % INHIB. LRAT ([2]; 100 μM): 50%

Compound: Nc1ncnc2nc[nH]c12 [adenine]
% INHIB. ARAT ([1]; Table 5, 100 μM): 0% | inhibition at 100 µM ([2]; read-out: % INHIB. LRAT): 0%

Compound: CC=CC(=O)C1CCC(C)(C)C=C1C (centres unmarked) [Isodamascone]
% INHIBITION, ARAT ([1]; Table 6A, 100µM): 80% | % INHIBITION, LRAT [2]: 92%

Compound: O=C(NCO)N(CO)C1(CO)C(=O)NC(=O)N1CO (centres unmarked) [diazolidinyl urea]
% INHIB. ARAT ([1]; Table 5, 100 μM): 0% | inhibition at 100 µM ([2]; read-out: % INHIB. LRAT): 0%

Compound: C=C(C)C1CC=C(C)C(=O)C1 (centres unmarked) [Carvone]
% INHIBITION, ARAT ([1]; Table 7, 100 µM): 0% | inhibition at 100 µM ([2]; read-out: % INHIBITION, LRAT): 0%

Compound: O=CC=Cc1ccccc1 [Cinnamaldehyde]
% INHIBITION, ARAT ([1]; Table 7, 100 µM): 0% | inhibition at 100 µM ([2]; read-out: % INHIBITION, LRAT): 0%

Compound: CC(=O)CCC1C(C)=CCCC1(C)C (stereo not drawn) [Dihydro alpha ionone]
% INHIBITION, ARAT ([1]; Table 7, 100 µM): 13%

Compound: CC12CCC(CC1)C(C)(C)O2 [Eucalyptol]
% INHIBITION, ARAT ([1]; Table 7, 100 µM): 0% | inhibition at 100 µM ([2]; read-out: % INHIBITION, LRAT): 0%

Compound: CC(=O)c1cc2c(cc1C)C(C)(C)[C@H](C)[C@H]2C(C)C [Traseolide]
% INHIBITION, ARAT ([1]; Table 6A, 100µM): 41%

Compound: Cc1ncc(C[n+]2csc(CCO)c2C)c(N)n1 [thiamine]
% INHIB. ARAT ([1]; Table 5, 100 μM): 0% | inhibition at 100 µM ([2]; read-out: % INHIB. LRAT): 0%

Compound: CCCCC/C=C\C/C=C\CCCCCCCC(=O)NCCO [Linoleamide-MEA (LOMEA), Linoleamide-MEA]
retinol esterification inhibition (result in words) [3]: potent retinol esterification inhibitors

Compound: N[C@@H](Cc1c[nH]c2ccccc12)C(=O)O [tryptophan]
% INHIB. ARAT ([1]; Table 5, 100 μM): 0% | inhibition at 100 µM ([2]; read-out: % INHIB. LRAT): 0%

Compound: CC(=O)c1cc2c(cc1C)C(C)(C)C(C)CC2(C)C (centres unmarked) [Tonalid]
% INHIBITION, ARAT ([1]; Table 6A, 100µM): 50% | inhibition at 100 µM ([2]; read-out: % INHIBITION, LRAT): 33%

Compound: conjugated linoleic acid [CLA]
Decorin ([4]; 0.1 µM CLA): 96.8% | Procollagen 1 ([5]; 0.1 µM CLA): 78.9%

Compound: CC1=C(/C=C/C(C)O)C(C)(C)CCC1 (stereo not drawn) [Beta ionol]
inhibition at 100 µM ([2]; read-out: % INHIBITION, LRAT): 0%

Compound: CCC(=O)/C=C/C1C(C)=CCCC1(C)C (stereo not drawn) [Alpha methyl ionone]
% INHIBITION, ARAT ([1]; Table 6A, 100µM): 67% | % INHIBITION, LRAT [2]: 77%

Compound: CC1=C(/C=C/C(C)=C/C=C/C(C)=C/C(=O)O)C(C)(C)CCC1 [trans Retinoic acid, reference compound]
Procollagen 1 ([5]; 0.01 µM trans Retinoic acid): 102.8%

Compound: Ceramide 6
Decorin ([4]; 0.01 µM Ceramide 6): 101.2%

Now from value to compound, other results behind:

% INHIBITION, ARAT ([1]; Table 7, 100 µM): 18% | inhibition at 100 µM ([2]; read-out: % INHIBITION, LRAT): 16%
Compound: CC1=CC(C)C(CO)C(C)C1 (centres unmarked) [Isocyclogeraniol]

% INHIBITION, ARAT ([1]; Table 6A, 100µM): 23% | % INHIBITION, LRAT [2]: 12%
Compound: Sandalone

% INHIB. ARAT ([1]; Table 5, 100 μM): 0% | inhibition at 100 µM ([2]; read-out: % INHIB. LRAT): 0%
Compound: O=c1cc[nH]c(=O)[nH]1 [uracil]

% INHIBITION, ARAT ([1]; Table 6A, 100µM): 76%
Compound: CC(C)(O)CCCC1=CCC(C=O)CC1 (centres unmarked) [Lyral]

% INHIB. ARAT ([1]; Table 8, 10 µM): 38% | % INHIB. ARAT ([1]; Table 8, 100 µM): 81% | inhibition at 10 µM ([2]; read-out: % INHIB. LRAT): 16% | inhibition at 100 µM ([2]; read-out: % INHIB. LRAT): 77%
Compound: CC(C)=CCC/C(C)=C/CC/C(C)=C/CC/C(C)=C/CO [Geranyl Geraniol]
retinol esterification inhibition (result in words) [3]: inhibit retinol esterification; also recorded: potent inhibitor of retinol esterification

% INHIB. LRAT ([2]; 100 μM): 0%
Compound: disodium cocamphodiacetate

inhibition at 10 µM ([2]; read-out: % INHIBITION, LRAT): 64% | inhibition at 100 µM ([2]; read-out: % INHIBITION, LRAT): 95%
Compound: C/C=C/C(=O)C1C(C)C=CCC1(C)C (centres unmarked) [Delta damascone]

% INHIBITION, ARAT ([1]; Table 7, 100 µM): 12%
Compound: CC12CCC(C1)C(C)(C)C2O (centres unmarked) [Fenchyl alcohol]

inhibition at 100 µM ([2]; read-out: % INHIBITION, LRAT): 0%
Compound: CC1=CCCC(C)(C)C1/C=C/C(C)O (stereo not drawn) [Alpha ionol]

% INHIBITION, LRAT [2]: 49%
Compound: CCOC(=O)C1=C(C)C=CCC1(C)C [Ethyl saffranate]

% INHIBITION, ARAT ([1]; Table 6A, 100µM): 15% | % INHIBITION, LRAT [2]: 43%
Compound: Sandanol

% INHIBITION, ARAT ([1]; Table 7, 100 µM): 0% | inhibition at 100 µM ([2]; read-out: % INHIBITION, LRAT): 0%
Compound: CC12CCC(CC1=O)C2(C)C (centres unmarked) [Camphor]

% INHIBITION, ARAT ([1]; Table 7, 100 µM): 0% | inhibition at 100 µM ([2]; read-out: % INHIBITION, LRAT): 0%
Compound: COc1cc(C=O)ccc1O [Vanillin]

inhibition at 10 µM ([2]; read-out: % INHIBITION, LRAT): 52% | inhibition at 100 µM ([2]; read-out: % INHIBITION, LRAT): 92%
Compound: C/C=C/C(=O)C1=C(C)CCCC1(C)C [Beta damascone]

inhibition at 100 µM ([2]; read-out: % INHIBITION, LRAT): 0%
Compound: CC(C)[C@@H]1CC[C@@H](C)CC1=O [Mentone]

% INHIBITION, LRAT [2]: 45%
Compound: CC1=CCCC(C)(C)C1/C=C/C(=O)CC(C)C (centres unmarked) [Isobutyl ionone]

% INHIBITION, LRAT [2]: 38%
Compound: CC(=O)/C(C)=C/C1C(C)=CCCC1(C)C (centres unmarked) [Gamma methyl ionone]

% INHIBITION, ARAT ([1]; Table 7, 100 µM): 0% | inhibition at 100 µM ([2]; read-out: % INHIBITION, LRAT): 0%
Compound: Cc1ccc(C(C)C)c(O)c1 [Thymol]

% INHIBITION, ARAT ([1]; Table 6A, 100µM): 83% | % INHIBITION, ARAT ([1]; Table 6B, 10µM): 67% | inhibition at 10 µM ([2]; read-out: % INHIBITION, LRAT): 87% | inhibition at 100 µM ([2]; read-out: % INHIBITION, LRAT): 98%
Compound: CC=CC(=O)C1C(C)=CCCC1(C)C (stereo not drawn) [alpha damascone]
